In one experiment the test system is CCRF-CEM cells. The experiment can be described thus: potentiation of the toxicity of 2'-deoxyguanosine (d-Guo) in CCRF-CEM cells. The format is cell-based. The following applies: read-out: IC50, concentration of the compound required to reduce the increase in cell number between 0 and 72 hours to 50% of that of control cultures, with d-Guo at 5.62 μM, RPMI-1640 medium. As to the method: CCRF-CEM cells are grown in RPMI-1640 medium. To a suspension cultures of these cells, d-Guo at a fixed concentration (5.62 μM) and the compound at varied concentrations are added and the number of cells are determined in a Coulter counter 24, 48, and 72 hours thereafter.

Experiment [1] addresses T1, purine nucleoside phosphorylase (PNP) (Bos taurus, UniProt P55859).
T1 construct: using calf spleen as the enzyme source; from tissue; host or cells: calf spleen
T1 sequence (P55859 1-289): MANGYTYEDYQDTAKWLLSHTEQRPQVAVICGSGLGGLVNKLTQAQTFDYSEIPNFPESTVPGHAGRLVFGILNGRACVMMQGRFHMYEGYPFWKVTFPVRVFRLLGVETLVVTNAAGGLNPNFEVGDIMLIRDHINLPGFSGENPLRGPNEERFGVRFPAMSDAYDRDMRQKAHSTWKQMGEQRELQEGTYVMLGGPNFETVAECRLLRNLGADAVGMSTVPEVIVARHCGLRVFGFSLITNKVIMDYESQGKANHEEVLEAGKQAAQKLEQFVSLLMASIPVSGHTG
The experiment can be described thus: biochemical. In kind it is biochemical, calf. The protocol: The compound of Example 8 is tested for enzyme inhibition activity.

A further experiment deals with plasma inosine. The experiment can be described thus: plasma inosine in Lewis rats after intraperitoneal injection (HPLC). In kind it is in vivo. To be noted: 30 mg twice per day, aqueous carrier with ten percent DMSO, vs vehicle controls. The protocol:
A pharmaceutical composition for intraperitoneal injection is prepared for testing the compound (IA). An intraperitoneal injection solution containing the compound (IA) is dissolved in an aqueous carrier that contains ten percent DMSO.
The compound (IA) is intraperitoneally injected into Lewis Rats via the test composition of Example 21 to provide 30 mg of the compound (IA), with an injection given twice per day. Controls are used, which receive only the vehicle. At specific times after administration, the animals are sacrificed and plasma samples are prepared. The plasma is extracted with cold 0.5 N HClO4 and neutralized with solid NH4 HCO3. After removal of perchlorate salts, the extract is subjected to HPLC on a reversed phase column (Spherisorb ODSI).
Compounds prepared as in Examples 10-20 are each made into a pharmaceutical formulation in accordance with the preparation of Example 21 and the resultant injectable solutions are tested in accordance with the procedure of Example 22.
A pharmaceutical composition for intraperitoneal injection is prepared for testing the compound (IC). An intraperitoneal injection solution is prepared containing the compound (IC) is dissolved in an aqueous carrier that contains ten percent DMSO. […]

Where [2] appears, read: 1 mM phosphate, calf spleen enzyme, read-out: PNP activity (IC50) at 1 mM phosphate.
The mark [3] stands for this setting: read-out: PNP activity (IC50) at 50 mM phosphate, 50 mM phosphate, calf spleen enzyme.

Read-outs that look alike come from different tables or passages of the source.

Consider `Nc1nc2c(CC3CCCCC3)c[nH]c2c(=O)[nH]1` [Example 56, 2-amino-7-(cyclohexylmethyl) -3H,5H-pyrrolo[3,2-d]-pyrimidin-4-one], for which the IC50 in the experiment with CCRF-CEM cells is 2000 nM.

Regarding `Nc1nc2c(CC3CCCC3)c[nH]c2c(=O)[nH]1` [Example 41, 2-amino-7-(cyclopentylmethyl)-3H,5H-pyrrolo[3,2-d]-pyrimidin-4-one], the IC50 in experiment [1] (setting [2]) came out at 29 nM; in experiment [1] (setting [3]) it was 1800 nM. Also, in the experiment on plasma inosine, the “increase in plasma inosine” value is on record as “significant increase in plasma inosine”.

Regarding `Nc1nc2c(CC3CCCCCC3)c[nH]c2c(=O)[nH]1` [Example 70, 2-amino-7-(cycloheptylmethyl)-3H,5H-pyrrolo[3,2-d]pyrimidin-4-one], the IC50 was 30 nM in experiment [1] (setting [2]) and 840 nM in experiment [1] (PNP activity (IC50) at 50 mM phosphate, 50 mM phosphate, calf spleen enzyme).

Regarding `Nc1nc2c(CC3C4CC5CC(C4)CC3C5)c[nH]c2c(=O)[nH]1` (stereo not shown) [Example 8, 2-amino-7-(2-adamantylmethyl)-3H,5H-pyrrolo[3,2-d]pyrimidin-4-one], the values for the IC50 in experiment [1] (setting [2]) and in experiment [1] (setting [3]) were 90 nM and 2500 nM, respectively. Moreover, the “increase in plasma inosine” value in the experiment with plasma inosine is listed as “significant increase in plasma inosine”.

In the case of `CC1CCCC(Cc2c[nH]c3c(=O)[nH]c(N)nc23)C1` (stereo not shown) [Example 59, 2-amino-7-(3-methylcyclohexylmethyl)-3H,5H-pyrrolo[3,2-d]pyrimidin-4-one], the IC50 in experiment [1] (read-out: PNP activity (IC50) at 1 mM phosphate) was 25 nM.

Values taken from patent US5008265A, “2-amino-7-(alicyclomethyl)-3H,5H,-pyrrolo[3,2-d]pyrimidin-4-ones and pharmaceutical uses and compositions containing the same” (BioCryst, Inc., priority 1989, dated 1991).
